Several values for one entry are separate records, joined by “and”; a condition that tells them apart may be missing. Equal values may be shown once.

Chain of MAPK14 (human) (Q16539 whole entry, looked up): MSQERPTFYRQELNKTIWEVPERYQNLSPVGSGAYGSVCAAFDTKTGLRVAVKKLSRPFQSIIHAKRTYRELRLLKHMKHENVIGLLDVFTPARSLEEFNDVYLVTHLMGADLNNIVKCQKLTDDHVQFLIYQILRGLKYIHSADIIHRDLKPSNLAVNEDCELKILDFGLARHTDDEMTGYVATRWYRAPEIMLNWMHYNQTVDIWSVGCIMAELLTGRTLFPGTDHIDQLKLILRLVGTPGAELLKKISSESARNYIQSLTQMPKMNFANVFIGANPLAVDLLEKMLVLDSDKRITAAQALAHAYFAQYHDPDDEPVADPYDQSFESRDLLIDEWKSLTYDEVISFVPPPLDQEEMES

This assay concerns the target MAPK14 (human) (UniProt Q16539). Nature of the assay: Inhibition of MAPK14 Kinase Activity. The note with it: THP.1 monocytic.
`O=c1c(Br)c(NCc2ccccc2)ccn1Cc1cccc(F)c1` displayed an IC50 of 1 to 25 µM.
With `C#Cc1c(OCc2ccccc2)ccn(Cc2cccc(F)c2)c1=O`, the IC50 was in the range of 1 to 25 µM.
`Cc1cc(OCc2ccc(F)cc2F)c(Br)c(=O)n1-c1c(F)cc(F)cc1F`: the IC50 was less than 1 µM.
Under `Cc1cc(OCc2ccc(F)cc2F)c(Br)c(=O)n1Cc1cnc(CN(C)C)cn1` stands 1 to 25 µM; under `COc1ccc(C(=O)N(C)C)cc1-n1c(C)cc(OCc2ccc(F)cc2F)c(Br)c1=O`, less than 1 µM.
Under `Cc1cc(OCc2ccc(F)cc2F)c(Br)c(=O)n1Cc1cccc(C(=O)O)c1` stands 1 to 25 µM.
The value for `O=C(Nc1ccn(Cc2cccc(F)c2)c(=O)c1Br)c1c(F)cccc1F` was 1 to 25 µM; that for `CCn1ccc(OCc2ccccc2)c(Br)c1=O` was 1 to 25 µM; that for `Cc1cc(OCc2ccc(F)cc2F)c(Br)c(=O)n1-c1c(F)cc(N2CCOCC2)cc1F` was less than 1 µM.
As for `CCOC(=O)c1cccc(-n2c(C)cc(OCc3ccc(F)cc3F)c(Br)c2=O)c1`, the IC50 is less than 1 µM.
The molecule `O=c1c(Br)c(OCc2ccccc2)ccn1Cc1ccccc1F` returned an IC50 of less than 1 µM.
Under `CNCc1cnc(Cn2c(C)cc(OCc3ccc(F)cc3F)c(Br)c2=O)cn1` stands 1 to 25 µM; under `Cc1cc(OCc2ccc(F)cc2F)c(Br)c(=O)n1-c1c(F)cc(N(C)CCO)cc1F`, less than 1 µM.
The value for `Cc1cc(OCc2ccc(F)cc2F)c(Cl)c(=O)n1-c1c(F)cccc1F` was less than 1 µM; that for `Cc1cc(OCc2ccc(F)cc2F)c(Br)c(=O)n1Cc1ccc(C(=O)NC(C)C)cc1` was less than 1 µM; that for `NC(=O)c1ccccc1Cn1ccc(OCc2ccccc2)c(Br)c1=O` was 1 to 25 µM.
Under `CNC(=O)c1cnc(Cn2c(C)cc(OCc3ccc(F)cc3F)c(Br)c2=O)cn1` stands 1 to 25 µM.
The molecule `Cc1cc(OCc2ccc(F)cc2F)c(Br)c(=O)n1-c1ccc(C(N)=O)cc1Cl` showed a concentration for half-maximal inhibition (IC50) of less than 1 µM.
Under `Cc1cc(OCc2ccc(F)cc2F)c(Cl)c(=O)n1Cc1cnc(CO)cn1` stands 1 to 25 µM.
The value for `O=c1c(Br)c(NCc2cccc(F)c2)ccn1Cc1cccc(F)c1` was 1 to 25 µM.
The value for `Cc1cc(OCc2ccc(F)cc2F)c(Br)c(=O)n1-c1cccc(C(=O)NCCN(C)C)c1` was less than 1 µM; that for `Cc1cc(OCc2ccc(F)cc2F)c(Br)c(=O)n1Cc1cccc(CNC(=O)CO)c1` was less than 1 µM.
Molecule `Cc1cnc(Cn2c(C)cc(OCc3ccc(F)cc3F)c(Br)c2=O)cn1` gave an IC50 of less than 1 µM.
Under `O=c1cc(OCc2ccccc2)ccn1Cc1ccc(OC(F)(F)F)cc1` stands 25 to 100 µM; under `Cc1cc(OCc2ccc(F)cc2F)c(Br)c(=O)n1-c1c(F)cc(N2CCN(C)CC2)cc1F`, less than 1 µM; under `Cc1c(C(O)CO)c(OCc2ccc(F)cc2F)c(Br)c(=O)n1-c1c(F)cccc1F` (centres undefined), 25 to 100 µM.
Under `O=c1cc(OCc2cccc(Cl)c2)ccn1Cc1ccccc1` stands 25 to 100 µM; under `CC(=O)Nc1ccc(Cn2c(C)cc(OCc3ccc(F)cc3F)c(Br)c2=O)cc1`, less than 1 µM; under `COC(=O)c1ccc(Cn2ccc(OCc3ccccc3)c(Br)c2=O)cc1`, less than 1 µM.
In turn, `C=Cc1c(OCc2ccccc2)ccn(Cc2ccccc2)c1=O` gave an IC50 of 25 to 100 µM.
`Cn1ccc(OCc2ccccc2)c(Br)c1=O` had a 50% inhibitory concentration (IC50) of 1 to 25 µM.
`O=c1c(C(F)(F)F)c(OCc2ccccc2)ccn1Cc1cccc(F)c1`: the IC50 is 25 to 100 µM.
Take `COCC(=O)NCc1cccc(-n2c(C)cc(OCc3ccc(F)cc3F)c(Br)c2=O)c1`: the IC50 was in the range of 1 to 25 µM.
`Cc1cc(OCc2ccc(F)cc2F)c(Br)c(=O)n1-c1cccc(C(=O)N(C)C)c1` showed a concentration for half-maximal inhibition (IC50) of less than 1 µM.
The value for `COCCN(C)C(=O)c1cccc(-n2c(C)cc(OCc3ccc(F)cc3F)c(Br)c2=O)c1` was 1 to 25 µM; that for `O=c1c(Br)c(OCc2ccccc2)ccn1Cc1ccc(Br)cc1` was less than 1 µM.
The value for `C=CCNc1cc(=O)n(-c2c(F)cccc2F)c(C)c1I` was 1 to 25 µM.
Under `O=C(Nc1ccn(Cc2cccc(F)c2)c(=O)c1Br)c1ccc(F)cc1` stands 1 to 25 µM.
Molecule `Cc1ccc(C(=O)NCCO)cc1-n1c(C)cc(OCc2ccc(F)cc2F)c(Br)c1=O` gave an IC50 of less than 1 µM.
Under `Cc1cc(OCc2ccc(F)cc2F)c(Br)c(=O)n1Cc1cccc(CNS(C)(=O)=O)c1` stands less than 1 µM.
The value for `CN(C(=O)Oc1ccn(Cc2ccccc2)c(=O)c1Br)c1ccccc1` was more than 100 µM; that for `Cc1cc(OCc2ccc(F)cc2F)c(Br)c(=O)n1-c1cccc(C(=O)N(C)CCO)c1` was 1 to 25 µM.
Under `O=c1c(Br)c(OCc2ccc(F)cc2F)cc(CN2CCOCC2)n1-c1c(F)cccc1F` stands less than 1 µM; under `CCOC(=O)CNc1nc(C)ncc1Cn1c(C)cc(OCc2ccc(F)cc2F)c(Br)c1=O`, 1 to 25 µM.
As to `Cc1cc(OCc2ccc(F)cc2F)c(Br)c(=O)n1Cc1ccc(C(=O)NO)cc1`, the IC50 is < 1 µM and 1 to 25 µM.
Under `Cc1cc(OCc2ccc(F)cc2F)c(Br)c(=O)n1Cc1cccc(CN2CCCCC2)c1` stands less than 1 µM; under `Cc1ccc(CO)cc1-n1c(C)cc(OCc2ccc(F)cc2F)c(Br)c1=O`, less than 1 µM; under `Cc1ccc(Cn2ccc(OCc3ccccc3)cc2=O)cc1`, 25 to 100 µM.
As for `CC(=O)NCc1cccc(-n2c(C)cc(OCc3ccc(F)cc3F)c(Br)c2=O)c1`, the concentration for half-maximal inhibition (IC50) was in the range of 1 to 25 µM.
For the molecule `N#Cc1ccccc1Cn1ccc(OCc2ccccc2)c(Br)c1=O`, the IC50 lay within 1 to 25 µM.
`C=CCNc1c(I)c(C)n(-c2c(F)cccc2F)c(=O)c1Br` had an IC50 of 1 to 25 µM.
Under `N#Cc1ccc(COc2ccn(Cc3cccc(F)c3)c(=O)c2Br)cc1` stands 25 to 100 µM; under `Cc1cc(OCc2ccc(F)cc2F)c(Br)c(=O)n1-c1cccc(C(=O)NCCCN)c1`, less than 1 µM; under `O=C(O)c1cc(OCc2ccc(F)cc2F)c(Br)c(=O)n1-c1c(F)cccc1F`, 1 to 25 µM.
The value for `O=c1cc(OCc2ccccc2)ccn1Cc1ccc(Br)cc1` was more than 100 µM.
Under `Cc1cc(OCc2ccc(F)cc2F)c(Br)c(=O)n1Cc1ccc(C(=O)N(CCO)CCO)cc1` stands less than 1 µM; under `Cc1cc(OCc2ccc(F)cc2F)c(Br)c(=O)n1-c1cccc(C(=O)NCCO)c1`, less than 1 µM.
`Cc1c(C=O)c(OCc2ccc(F)cc2F)c(Br)c(=O)n1-c1c(F)cccc1F` displayed an IC50 of 25 to 100 µM.
The value for `O=Cc1cc(OCc2ccc(F)cc2F)c(Br)c(=O)n1-c1c(F)cccc1F` was less than 1 µM; that for `Cc1cc(OCc2ccc(F)cc2F)c(Br)c(=O)n1Cc1cccc(CN)c1` was less than 1 µM.
Under `Cc1cc(OCc2ccc(F)cc2F)c(Br)c(=O)n1CC1CC1` stands less than 1 µM; under `O=c1c(Br)c(OCc2ccccc2)ccn1Cc1ccccc1C(F)(F)F`, more than 100 µM.
Under `CNC(=O)c1ccc(C)c(-n2c(C)cc(OCc3ccc(F)cc3CNC(=O)OC)c(Br)c2=O)c1` stands less than 1 µM; under `Cc1cc(OCc2ccc(F)cc2F)c(Cl)c(=O)n1-c1cccc(C(N)=O)c1`, less than 1 µM; under `CNC(=O)c1ccc(-n2c(C)cc(OCc3ccc(F)cc3F)c(Br)c2=O)cc1`, more than 100 µM.
Molecule `Cc1c(OCc2ccc(F)cc2)ccn(Cc2cccc(F)c2)c1=O` returned a half-inhibitory concentration (IC50) of 1 to 25 µM.
Under `Cc1cc(OCc2ccc(F)cc2F)c(Br)c(=O)n1-c1cccc(CNC(=O)CO)c1` stands 1 to 25 µM.
The value for `Cc1cc(OCc2ccc(F)cc2F)c(Br)c(=O)n1Cc1cnc(CO)cn1` was less than 1 µM; that for `Cc1cc(OCc2ccc(F)cc2F)c(Br)c(=O)n1Cc1ccc(CN2CCOCC2)cc1` was less than 1 µM; that for `O=c1c(Br)c(CCc2ccccc2)ccn1Cc1ccccc1` was 1 to 25 µM.
Under `Cc1ccc(CO)cc1-n1c(C)cc(OCc2ccc(F)cc2F)c(Cl)c1=O` stands less than 1 µM.
In turn, `Cc1cc(OCc2ccc(F)cc2F)c(Br)c(=O)n1Cc1ccccc1C(N)=O` yielded an IC50 of 1 to 25 µM.
The value for `Cc1c(CO)c(OCc2ccc(F)cc2F)c(Br)c(=O)n1-c1c(F)cccc1F` was 1 to 25 µM.
The value for `Cc1cnc(Cn2c(C)cc(OCc3ccc(F)cc3F)c(Cl)c2=O)cn1` was less than 1 µM.
Under `CCOC(=O)c1ccc(-n2c(C)cc(OCc3ccc(F)cc3F)c(Br)c2=O)nc1` stands 25 to 100 µM; under `O=c1c(Br)c(NCc2ccc(F)cc2C(F)(F)F)ccn1Cc1cccc(F)c1`, more than 100 µM.
Regarding `O=c1c(Br)c(OCc2ccc(F)cc2F)cc(CO)n1-c1c(F)cc(F)cc1F`, the IC50 was less than 1 µM.
Molecule `COc1cccc(COc2ccn(Cc3cccc(F)c3)c(=O)c2Br)c1` returned an IC50 of 1 to 25 µM.
The value for `O=c1c(Br)c(NCc2cccc(C(F)(F)F)c2)ccn1Cc1cccc(F)c1` was 1 to 25 µM; that for `Cc1cc(OCc2ccc(F)cc2F)c(Br)c(=O)n1Cc1ccc(C(=O)N(C)C)cc1` was less than 1 µM; that for `C=Cc1c(OCc2ccc(F)cc2F)c(Br)c(=O)n(-c2c(F)cccc2F)c1C` was 25 to 100 µM.
Under `COC(=O)c1ccc(C)c(-n2c(C)cc(OCc3ccc(F)cc3F)c(Cl)c2=O)c1` stands less than 1 µM.
On to `Cc1ccc(COc2ccn(Cc3ccccc3)c(=O)c2Br)cc1`, for which the 50% inhibitory concentration (IC50) lay in the range of 1 to 25 µM.
The value for `O=c1c(Br)c(NCc2ccc(Cl)cc2F)ccn1Cc1cccc(F)c1` was 1 to 25 µM; that for `COC(=O)NCc1cccc(-n2c(C)cc(OCc3ccc(F)cc3F)c(Br)c2=O)c1` was 1 to 25 µM; that for `Cc1cc(OCc2ccc(F)cc2F)c(Br)c(=O)n1-c1cccc(CNC(N)=O)c1` was 1 to 25 µM.
Under `Cc1ccc(C(C)(C)O)cc1-n1c(C)cc(OCc2ccc(F)cc2F)c(Br)c1=O` stands less than 1 µM; under `Cc1cc(OCc2ccc(F)cc2F)c(Cl)c(=O)n1-c1cc(CN)ccc1F`, less than 1 µM.
`Cc1cc(OCc2ccc(F)cc2F)c(Br)c(=O)n1-c1ccc(C(=O)NCCN)cc1` gave an IC50 of less than 1 µM.
The value for `Cc1cc(OCc2ccc(F)cc2F)c(Br)c(=O)n1Cc1ccc(S(=O)(=O)N(C)C)cc1` was less than 1 µM; that for `CCOC(=O)CCn1ccc(OCc2ccccc2)c(Br)c1=O` was 1 to 25 µM; that for `Cc1c(C=NO)c(OCc2ccc(F)cc2F)c(Br)c(=O)n1-c1c(F)cccc1F` was 25 to 100 µM.
The value for `CC(C)(C)c1ccc(COc2ccn(Cc3cccc(F)c3)c(=O)c2Br)cc1` was more than 100 µM.
The value for `COCCNCc1cc(OCc2ccc(F)cc2F)c(Br)c(=O)n1-c1c(F)cccc1F` was less than 1 µM.

By IC50 is commonly meant the concentration at which inhibition is half-maximal.

For the origin of these results see the Kinase Knowledgebase extract (Sharma et al. 2016).
